This assay deals with T1, human type 1 glycine transporter (GlyT1) (Homo sapiens, UniProt P48067).
T1 construct: T98G cells (glioma cells) expressing human type 1 glycine transporter (GlyT1) were used
T1 sequence (P48067 1-706): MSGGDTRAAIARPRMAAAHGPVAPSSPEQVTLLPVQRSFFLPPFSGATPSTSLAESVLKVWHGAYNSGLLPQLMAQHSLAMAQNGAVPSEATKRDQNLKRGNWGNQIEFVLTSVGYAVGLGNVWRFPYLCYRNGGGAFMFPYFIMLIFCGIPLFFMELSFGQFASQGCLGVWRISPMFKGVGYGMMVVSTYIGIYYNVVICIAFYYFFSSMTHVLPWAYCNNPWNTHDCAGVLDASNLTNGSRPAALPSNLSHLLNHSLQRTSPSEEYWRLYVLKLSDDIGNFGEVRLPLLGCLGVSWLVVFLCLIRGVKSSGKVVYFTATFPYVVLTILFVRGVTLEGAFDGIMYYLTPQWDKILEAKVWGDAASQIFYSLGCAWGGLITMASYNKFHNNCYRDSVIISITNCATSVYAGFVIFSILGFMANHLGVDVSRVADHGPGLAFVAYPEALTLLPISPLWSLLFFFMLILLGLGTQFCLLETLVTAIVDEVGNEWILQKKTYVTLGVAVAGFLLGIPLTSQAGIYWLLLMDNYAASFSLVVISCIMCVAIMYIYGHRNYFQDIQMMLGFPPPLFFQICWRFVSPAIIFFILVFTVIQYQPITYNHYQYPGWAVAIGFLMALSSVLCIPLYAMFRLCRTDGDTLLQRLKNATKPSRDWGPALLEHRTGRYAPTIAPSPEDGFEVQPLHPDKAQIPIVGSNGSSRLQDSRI
Description: Glycine uptake inhibition experiment ([3H]glycine uptake). The assay is classed as cell-based. Summed up: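 T98G glioma cells expressing human GlyT1 were pretreated 10 min with compound in HEPES buffer pH 7.4 (0.2% BSA), then incubated with compound plus 250 nM final [3H]glycine for 15 min at room temperature. Intracellular radioactivity was counted after NaOH lysis; 10 μM ALX5407 defined non-specific uptake. IC50 came from 10^−9–10^−5 M curves.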

In turn, `Cc1ccc(-c2ncccn2)c(C(=O)NC(c2cccc(F)c2Cl)[C@]2(O)CC[C@@H](F)CC2)n1` (single isomer, unassigned) [Compound 284, N-[(2-chloro-3-fluorophenyl)(cis-4-fluoro-1-hydroxycyclohexyl)methyl]-6-methyl-3-(pyrimidin-2-yl)pyridine-2-carboxamide] came in with a half-inhibitory concentration (IC50) (GlyT1) of 1.9 µM.

For the molecule `CS(=O)(=O)c1ccc(C(F)(F)F)cc1C(=O)NC(c1ccccc1Cl)C1(O)CCC(F)(F)CC1` (single isomer, unassigned) [Compound 395, N-[(2-chlorophenyl)(4,4-difluoro-1-hydroxycyclohexyl)methyl]-2-(methylsulfonyl)-5-(trifluoromethyl)benzamide], the IC50 (GlyT1) worked out at 0.33 µM.

As to `O=C(NC(c1cccc(Cl)c1Cl)C1(O)CCCC1)c1nccc(C(F)(F)F)c1Cl` (single isomer, unassigned) [Compound 117, 3-chloro-N-[(2,3-dichlorophenyl)(1-hydroxycyclopentyl)methyl]-4-(trifluoromethyl)pyridine-2-carboxamide], the IC50 (GlyT1) is 0.029 µM.

Under “GlyT1”, `O=C(NC(c1cccc(Cl)c1Cl)C1(O)CCCC1)c1nccc(C(F)(F)F)c1Cl` (single isomer, unassigned) [Compound 116, 3-chloro-N-[(2,3-dichlorophenyl)(1-hydroxycyclopentyl)methyl]-4-(trifluoromethyl)pyridine-2-carboxamide] displayed an IC50 of 6 µM.

`O=C(NC(c1cccc(F)c1Cl)[C@]1(O)CC[C@@H](F)CC1)c1ccccc1-n1cnnn1` (single isomer, unassigned) [Compound 270, N-[(2-chloro-3-fluorophenyl)(cis-4-fluoro-1-hydroxycyclohexyl)methyl]-2-(1H-tetrazol-1-yl)benzamide] showed an IC50 (GlyT1) of 2.4 µM.

With `COc1ccccc1C(NC(=O)c1nccc(C(F)(F)F)c1Cl)C1(O)CCCC1` (stereo not shown) [Compound 50, 3-chloro-N-[(1-hydroxycyclopentyl)(2-methoxyphenyl)methyl]-4-(trifluoromethyl)pyridine-2-carboxamide], the IC50 (GlyT1) stood at 0.54 µM.

The molecule `O=C(NC(c1cccc(Cl)c1)C1(O)CCCC1)c1ccnc(C(F)(F)F)c1Cl` (single isomer, unassigned) [Compound 185, 3-chloro-N-[(3-chlorophenyl)(1-hydroxycyclopentyl)methyl]-2-(trifluoromethyl)pyridine-4-carboxamide] yielded an IC50 (GlyT1) of 0.14 µM.

As to `O=C(NC(c1cccc(F)c1Cl)[C@]1(O)CC[C@@H](F)CC1)c1ccc(C(F)(F)F)nc1-n1nccn1` (single isomer, unassigned) [Compound 393, N-[(2-chloro-3-fluorophenyl)(cis-4-fluoro-1-hydroxycyclohexyl)methyl]-2-(2H-1,2,3-triazol-2-yl)-6-(trifluoromethyl)pyridine-3-carboxamide], where the note is “GlyT1”, inhibition was half-maximal at 0.04 µM (IC50).

Under “GlyT1”, `O=C(N[C@@H](c1cccc(Cl)c1)[C@]1(O)CC[C@@H](F)CC1)c1ccnc(C(F)(F)F)c1Cl` [Compound 186, 3-chloro-N-[(S)-(3-chlorophenyl)(cis-4-fluoro-1-hydroxycyclohexyl)methyl]-2-(trifluoromethyl)pyridine-4-carboxamide] came in with an IC50 of 0.15 µM.

Where the note is “GlyT1”, `O=C(NC(c1ccccc1Cl)[C@]1(O)CC[C@@H](F)CC1)c1ccnc(C(F)(F)F)c1Cl` (single isomer, unassigned) [Compound 211, 3-chloro-N-[(2-chlorophenyl)(cis-4-fluoro-1-hydroxycyclohexyl)methyl]-2-(trifluoromethyl)pyridine-4-carboxamide] displayed a concentration for half-maximal inhibition (IC50) of 0.17 µM.

Molecule `O=C(NC(c1cccc(Cl)c1F)C1(O)CCC(F)(F)CC1)c1ccnc(C(F)(F)F)c1Cl` (single isomer, unassigned) [Compound 169, 3-chloro-N-[(3-chloro-2-fluorophenyl)(4,4-difluoro-1-hydroxycyclohexyl)methyl]-2-(trifluoromethyl)pyridine-4-carboxamide] came in with an IC50 (GlyT1) of 0.095 µM.

The molecule `O=C(NC(c1cccc(Cl)n1)C1(O)CCCC1)c1nccc(C(F)(F)F)c1Cl` (single isomer, unassigned) [Compound 398, 3-chloro-N-[(6-chloropyridin-2-yl)(1-hydroxycyclopentyl)methyl]-4-(trifluoromethyl)pyridine-2-carboxamide] came in with an IC50 (human GlyT1) of 7.5 µM.

Molecule `O=C(NC(c1ncccc1Cl)C1(O)CCC(F)(F)CC1)c1nccc(C(F)(F)F)c1Cl` (single isomer, unassigned) [Compound 319, 3-chloro-N-[(3-chloropyridin-2-yl)(4,4-difluoro-1-hydroxycyclohexyl)methyl]-4-(trifluoromethyl)pyridine-2-carboxamide] displayed an IC50 (GlyT1) of 1.8 µM.

For the molecule `O=C(N[C@H](c1cccc(Cl)c1)[C@]1(O)CC[C@@H](F)CC1)c1nccc(C(F)(F)F)c1Cl` [Compound 161, 3-chloro-N-[(R)-(3-chlorophenyl)(cis-4-fluoro-1-hydroxycyclohexyl)methyl]-4-(trifluoromethyl)pyridine-2-carboxamide], the IC50 (GlyT1) amounted to 6.7 µM.

For the molecule `Cc1ccc(-n2nccn2)c(C(=O)NC(c2cccc(F)c2Cl)[C@]2(O)CC[C@@H](F)CC2)n1` (single isomer, unassigned) [Compound 283, N-[(2-chloro-3-fluorophenyl)(cis-4-fluoro-1-hydroxycyclohexyl)methyl]-6-methyl-3-(2H-1,2,3-triazol-2-yl)pyridine-2-carboxamide], the IC50 (GlyT1) amounted to 1.1 µM.

Consider `O=C(NC(c1ccc(F)c(Cl)c1)C1(O)CCCC1)c1nccc(C(F)(F)F)c1Cl` (stereo not shown) [Compound 93, 3-chloro-N-{(3-chloro-4-fluorophenyl)(1-hydroxycyclopentyl)methyl}-4-(trifluoromethyl)pyridine-2-carboxamide], for which it took 0.43 µM to reach half-maximal inhibition (GlyT1) (IC50).

In turn, `CS(=O)(=O)c1ccc(Cl)c(C(=O)NC(c2cccc(F)c2Cl)[C@]2(O)CC[C@@H](F)CC2)c1` (single isomer, unassigned) [Compound 296, 2-chloro-N-[(2-chloro-3-fluorophenyl)(cis-4-fluoro-1-hydroxycyclohexyl)methyl]-5-(methylsuflonyl)benzamide] came in with an IC50 (GlyT1) of 3.5 µM.

Regarding `O=C(NC(c1cccc(-n2ccnn2)c1)C1(O)CCCC1)c1nccc(C(F)(F)F)c1Cl` (stereo not shown) [Compound 78, 3-chloro-N-{(1-hydroxycyclopentyl)[3-(1H-1,2,3-triazol-1-yl)phenyl]methyl}-4-(trifluoromethyl)pyridine-2-carboxamide], the midpoint of inhibition (GlyT1), the IC50, lay at 0.45 µM.

Consider `O=C(NC(c1cccc(F)c1Cl)[C@]1(O)CC[C@@H](F)CC1)c1cnc(Cl)cc1-n1nccn1` (single isomer, unassigned) [Compound 369, 6-chloro-N-[(2-chloro-3-fluorophenyl)(cis-4-fluoro-1-hydroxycyclohexyl)methyl]-4-(2H-1,2,3-triazol-2-yl)pyridine-3-carboxamide], for which half-maximal inhibition (GlyT1) (IC50) was put at 1.2 µM.

The molecule `CCn1cc(-c2cccc(C(NC(=O)c3cccc4ccccc34)C3(O)CCC(F)(F)CC3)c2)cn1` (single isomer, unassigned) [Compound 195, N-{(4,4-difluoro-1-hydroxycyclohexyl)[3-(1-ethyl-1H-pyrazol-4-yl)phenyl]methyl}naphthalene-1-carboxamide] had an IC50 (GlyT1) of 1.1 µM.

For the molecule `CCn1cc(-c2cccc(C(NC(=O)c3cccc(C(F)(F)F)c3Cl)C3(O)CCC(F)(F)CC3)c2)cn1` (single isomer, unassigned) [Compound 122, 2-chloro-N-{(4,4-difluoro-1-hydroxycyclohexyl)[3-(1-ethyl-1H-pyrazol-4-yl)phenyl]methyl}-3-(trifluoromethyl)benzamide], half-maximal inhibition (GlyT1) (IC50) was put at 0.22 µM.

Molecule `O=C(NC(c1ccccc1Cl)C1(O)CCCC1)c1nccc(C(F)(F)F)c1Cl` (stereo not shown) [Compound 44, 3-chloro-N-[(2-chlorophenyl)(1-hydroxycyclopentyl)methyl]-4-(trifluoromethyl)pyridine-2-carboxamide] displayed a half-maximal inhibitory concentration (IC50) (GlyT1) of 0.066 µM.

`O=C(NC(c1cc(Cl)ccc1Cl)C1(O)CCC(F)(F)CC1)c1nccc(C(F)(F)F)c1Cl` (single isomer, unassigned) [Compound 235, 3-chloro-N-[(2,5-dichlorophenyl)(4,4-difluoro-1-hydroxycyclohexyl)methyl]-4-(trifluoromethyl)pyridine-2-carboxamide] came in with an IC50 (GlyT1) of 0.74 µM.

Molecule `CS(=O)(=O)c1cc(C(F)(F)F)ccc1C(=O)NC(c1cccc(F)c1Cl)[C@]1(O)CC[C@@H](F)CC1` (single isomer, unassigned) [Compound 373, N-[(2-chloro-3-fluorophenyl)(cis-4-fluoro-1-hydroxycyclohexyl)methyl]-2-(methylsulfonyl)-4-(trifluoromethyl)benzamide] showed an IC50 (GlyT1) of 0.1 µM.

`O=C(NC(c1cccc(F)c1Cl)[C@]1(O)CC[C@@H](F)CC1)c1ccc(F)cc1Cl` (single isomer, unassigned) [Compound 307, 2-chloro-N-[(2-chloro-3-fluorophenyl)(cis-4-fluoro-1-hydroxycyclohexyl)methyl]-4-fluorobenzamide] had a concentration for half-maximal inhibition (IC50) (GlyT1) of 1.3 µM.

One may read the IC50 as the concentration that gives 50% inhibition.
